Activity data for two compounds are collected here from ChEMBL document CHEMBL2074535, “Differential interactions of cytochalasins with P-glycoprotein” (Oncol Res, 1995).

In series [1] the target is T1, ATP-dependent translocase ABCB1 (Homo sapiens, UniProt P08183). The series is described as follows: TP_TRANSPORTER: increase in Vinblastine intracellular accumulation (Vinblastine: 0.01-0.02 uM, Cytochalasine E: 10 uM) in MCF-7/ADR cells. The conditions noted are these: nci/adr-res. It counts as functional, cell-based.
In series [2] the target is T1, ATP-dependent translocase ABCB1. In words: TP_TRANSPORTER: ATP hydrolysis in membranes from MCF/ADR cells. It counts as functional, cell membranes, Membrane.
Series [3] shares this target. In words: TP_TRANSPORTER: increase in Vinblastine intracellular accumulation (Vinblastine: 0.01-0.02 uM, Dihydrocytochalasin B: 10 uM) in MCF-7/ADR cells. It counts as functional, cell-based. The following applies: nci/adr-res.

T1 sequence (P08183 whole entry): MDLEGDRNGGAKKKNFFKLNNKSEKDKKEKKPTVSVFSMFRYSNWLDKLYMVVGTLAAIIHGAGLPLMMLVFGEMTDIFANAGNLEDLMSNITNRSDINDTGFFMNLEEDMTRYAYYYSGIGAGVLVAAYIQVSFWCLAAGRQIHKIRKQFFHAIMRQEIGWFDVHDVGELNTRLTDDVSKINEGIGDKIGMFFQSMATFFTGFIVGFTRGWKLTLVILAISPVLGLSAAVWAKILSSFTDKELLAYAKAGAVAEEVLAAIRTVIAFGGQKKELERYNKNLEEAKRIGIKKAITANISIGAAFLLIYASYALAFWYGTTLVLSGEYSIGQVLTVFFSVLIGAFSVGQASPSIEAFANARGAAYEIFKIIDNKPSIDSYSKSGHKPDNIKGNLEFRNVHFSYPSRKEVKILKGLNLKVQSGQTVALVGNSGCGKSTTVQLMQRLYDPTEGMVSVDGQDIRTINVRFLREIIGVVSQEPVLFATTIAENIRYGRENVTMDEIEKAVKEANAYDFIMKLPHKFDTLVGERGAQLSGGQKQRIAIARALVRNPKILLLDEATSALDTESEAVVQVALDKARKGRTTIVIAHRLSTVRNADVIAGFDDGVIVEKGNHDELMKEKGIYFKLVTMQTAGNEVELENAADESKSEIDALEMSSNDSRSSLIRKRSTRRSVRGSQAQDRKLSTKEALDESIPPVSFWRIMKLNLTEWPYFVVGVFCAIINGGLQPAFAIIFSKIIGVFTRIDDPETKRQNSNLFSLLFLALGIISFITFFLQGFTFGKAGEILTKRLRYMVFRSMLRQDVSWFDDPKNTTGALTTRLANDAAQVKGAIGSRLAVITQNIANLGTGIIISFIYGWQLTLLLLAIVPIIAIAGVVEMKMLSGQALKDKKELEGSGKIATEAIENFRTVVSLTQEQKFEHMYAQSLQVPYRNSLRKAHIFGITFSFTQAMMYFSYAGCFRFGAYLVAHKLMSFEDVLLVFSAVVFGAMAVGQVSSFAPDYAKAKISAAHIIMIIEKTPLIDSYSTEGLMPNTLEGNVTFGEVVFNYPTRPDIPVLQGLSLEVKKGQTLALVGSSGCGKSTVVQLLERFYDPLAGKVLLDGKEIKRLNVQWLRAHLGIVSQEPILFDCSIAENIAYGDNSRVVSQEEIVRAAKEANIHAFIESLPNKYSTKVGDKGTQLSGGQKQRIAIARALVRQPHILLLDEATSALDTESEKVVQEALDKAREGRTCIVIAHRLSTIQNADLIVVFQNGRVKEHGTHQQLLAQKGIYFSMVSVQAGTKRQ

With `C[C@H]1C/C=C/[C@H]2[C@@H]3O[C@]3(C)[C@@H](C)[C@H]3[C@H](Cc4ccccc4)NC(=O)[C@]32OC(=O)O/C=C/[C@@](C)(O)C1=O` [CYTOCHALASIN E], the Activity in series [1] is reported as 190%.

In the case of `C=C1[C@@H](C)[C@H]2[C@H](Cc3ccccc3)NC(=O)[C@]23OC(=O)CC[C@H](O)CCC[C@@H](C)C/C=C/[C@H]3[C@@H]1O` [DIHYDROCYTOCHALASIN B], the Activity result in series [2] is “substrate [+]”; in series [3], 257%.
